Test results reported in paper PMC12040169 (PLOS Biology, 2025).

test: in vitro; conditions: human, hela cells, % viability

Row | Structure (SMILES) | viability at 28.5 h, 10 µM [%]
1 | CC(C)[C@H](CO)Nc1nc(-c2cccc(OC(F)(F)F)c2)cnc1N [CBK063957] | 85.7
2 | COc1ccc2nc(NC(=O)c3ccc(Br)s3)sc2c1 [CBK287316] | 92.8
3 | O=c1c2c3c(sc2ncn1Cc1nn[nH]n1)CCCC3 [CBK269808] | 83.9
4 | COc1ccc(Nc2ncnc3oc(C)c(C)c23)cc1 [CBK288163] | 93.3
5 | CCOC(=O)N1COC[C@@H]1C(=O)O [CBK010379] | 81.5
6 | O=C(NCc1ccccc1)N1CCC(n2cnc3cccnc32)CC1 [CBK282281] | 100
7 | CCN1CCC2(CC1)NC(=O)Cc1cc(OC)c(OC)c(OC)c12 [CBK039868] | 97.6
8 | CS(=O)(=O)N1CCN(c2ccccc2NC(=O)COc2ccc(Cl)cc2)CC1 [CBK268854] | 94.7
9 | CCn1nc(C)c(C(C)NC(=O)CC(C)n2nc(C)cc2C)c1C (stereo not drawn) [CBK281533] | 78.9
10 | COc1cc2c(cc1OC)C(CCN1CCN(c3ccccc3C)CC1)OCC(C)(C)C2 (stereo not drawn) [CBK024043C] | 98.5
11 | c1ccc2c(c1)nnn2Cc1nnc2sc(-c3cnccn3)nn12 [CBK268393] | 84.7
12 | FC(F)(F)c1cccc(CSc2nccnc2N2CCCC2)c1 [CBK107178] | 94.7
13 | COC(=O)C1=C(C)N=C2SCCC(=O)N2C1c1ccc(C(C)C)cc1 (stereo not drawn) [CBK073523] | 109
14 | CCc1ccc(OC)c(S(=O)(=O)N2CCOCC2)c1 [CBK268214] | 117
15 | O=c1cc(N2CCCCC2)cnn1Cc1nccs1 [CBK307678] | 87.4
16 | CC(C)NS(=O)(=O)c1ccc(NS(=O)(=O)c2cc(C(=O)O)ccc2Cl)cc1 [CBK296951] | 99.5
17 | Cn1cc2c(n1)[C@H]1CN(C(=O)c3cc(C(F)(F)F)nn3C)C[C@H]1C2 [CBK283400] | 93.8
18 | COc1ccc(NC(=O)c2cc(-c3cccnc3)nc3c(C)c(C)ccc23)c(OC)c1 [CBK267746] | 96.2
19 | CCc1c(-c2cccc(C(=O)N3CCS(=O)(=O)CC3)c2)cnn1C [CBK307487] | 75.3
20 | COc1ccc(CCC(=O)N2CCCC(c3nccnc3-c3cccc(C)c3)C2)cc1 (stereo not drawn) [CBK286510] | 99.6
21 | O=C(NNC1=C(C(=O)C(F)(F)F)CCC1)c1cccnc1 [CBK262459] | 89.1
22 | CCOc1ccc(-c2noc(CCC(=O)NC)n2)cc1OC [CBK269226] | 86.4
23 | O=C(COc1ccccc1[N+](=O)[O-])Nc1ccc(Cl)c(-c2nc3ncccc3o2)c1 [CBK268811] | 88.8

Row | Structure (SMILES) | viability at 28.5 h, 10 µM [%]
24 | Cc1cc(C(=O)NCCn2ccnc2C)c2ccccc2n1 [CBK281895] | 100
25 | CCCCN(CCCC)c1nccnc1Cl [CBK001576] | 94.7
26 | O=C(O)C1C2C=CC(O2)C1C(=O)NCC1CCCO1 (stereo not drawn) [CBK286917] | 92.7
27 | O=C(O)CCSc1nc2ccccc2nc1N1CCCC1 [CBK107862] | 95.7
28 | O=C(O)c1cccc(NS(=O)(=O)c2cccnc2)c1 [CBK155700] | 101
29 | CC(NC(=O)COc1ccc(Cl)cc1)C(=O)O (stereo not drawn) [CBK262112] | 90.7
30 | COC(=O)c1cn([C@H]2CO[C@H]3[C@@H]2OC[C@@H]3NC(=O)Nc2cccc(C(F)(F)F)c2)nn1 [CBK289501] | 78.9
31 | CC(C)(C)c1cc(C(=O)Nc2ccccn2)n(Cc2ccc(Cl)cc2Cl)n1 [CBK107361] | 89.6
32 | N#Cc1ccc(C(=O)NCc2ccc(OC3CCNCC3)cc2)cc1 [CBK036358T] | 89.5
33 | CS(=O)(=O)Nc1cccc2cc[nH]c12 [CBK159509] | 110
34 | OCCN1CCN(c2nccnc2-c2cccs2)CC1 [CBK088811] | 106
35 | O=C1c2cccc([N+](=O)[O-])c2C(=O)N1c1cc(Cl)cc(Cl)c1 [CBK115326] | 112
36 | Cc1ccc([N+](=O)[O-])c(OCCN2CCN(Cc3ccccc3)CC2)c1 [CBK268568G] | 99.2
37 | COc1ccccc1-c1cn2ccnc2c(NCc2ccccc2)n1 [CBK037372] | 92.7
38 | O=C(Nc1cc(Cl)ccc1O)c1ccc(C(=O)Nc2cc(Cl)ccc2O)cc1 [CBK266784] | 94.9
39 | O=C(CCC1CCCC1)N1C[C@@H]2CCCCN(CC3CC3)[C@@H]2C1 [CBK285531] | 94
40 | Cc1cc(Cl)c(S(=O)(=O)Nc2cccnc2)cc1OCC(=O)NC1CCCCC1 [CBK266773] | 92.7
41 | COc1cc(NC(=O)N[C@@H]2CN(C)C[C@H]2c2ccc(OC)c(OC)c2)cc(OC)c1 [CBK081112] | 93
42 | COC(=O)c1cscc1NC(=O)c1cnc(-c2ccc(Cl)cc2)c(-c2ccco2)c1 [CBK036657] | 104
43 | Cc1cc(C)nc(-n2ncc(C#N)c2NC(=O)c2ccccc2)n1 [CBK288135] | 111
44 | O=C(Nc1ccc(S(=O)(=O)Nc2ccc(Cl)cc2)cc1)c1ccc(Cn2cc(Br)cn2)o1 [CBK265764] | 108
45 | CC(C)c1noc(C(C)N2CCN(Cc3noc(C(C)(C)C)n3)CC2)n1 (stereo not drawn) [CBK305202] | 84.4
46 | Cc1ccc2cc(COc3cccnc3[N+](=O)[O-])c(Cl)nc2c1C [CBK297113] | 103

Row | Structure (SMILES) | viability at 28.5 h, 10 µM [%]
47 | Cc1nnnn1-c1cc(NC(=O)NCCc2ccnn2C)ccc1F [CBK306428] | 87.8
48 | COc1cc(C(=O)NCc2ccc(-c3csnn3)cc2)cc(OC)c1OC [CBK149308] | 87
49 | O=C(CN1CCCCC1)Nc1cccc(-n2cnnn2)c1 [CBK027661] | 105
50 | O=C(Cc1ccccc1)N1CCN(Cc2ccc3ccccc3c2)CC1 [CBK263037] | 112
51 | Cc1cccc(OCCSc2nc3c(N)ncn(Cc4ccccc4)c-3n2)c1 [CBK266843] | 84.1
52 | COc1cc2c3c([nH]c2cc1F)C1(CCN(CCOc2ccccc2)C1)NCC3 (stereo not drawn) [CBK115687T] | 77.6
53 | Cc1nn(C)c(Cl)c1S(=O)(=O)Nc1nn(Cc2ccc(C#N)cc2)c2ccccc12 [CBK048185] | 111
54 | CCc1nc2cccnc2n1CCNC(=O)c1cccs1 [CBK283638] | 94.3
55 | CCOC(=O)C1CCCN(Cc2ccc(OC)cc2)C1 (stereo not drawn) [CBK304413] | 88.3
56 | CSc1nc(NC(=O)c2cccs2)cc(N2CCNCC2)n1 [CBK050315T] | 89.7
57 | CCC(CC)C(=O)N1CCCC(c2cc3cccnc3[nH]2)C1 (stereo not drawn) [CBK284926] | 100
58 | O=C(O)COc1ccccc1/C=N\N1CCN(Cc2ccccc2Cl)CC1 [CBK020891] | 96.7
59 | O=C(CSc1nc[nH]n1)Nc1ccccc1[N+](=O)[O-] [CBK265005] | 100
60 | OCc1ccnc2ccccc12 [CBK001746] | 87.4
61 | O=C1c2ccc(Oc3ccc4c(c3)C(=O)N(c3ccncc3)C4=O)cc2C(=O)N1c1ccncc1 [CBK261399] | 96.5
62 | O=C(Nc1cnc(-c2cccc(C(F)(F)F)c2)c(-c2cccnc2)n1)c1cc(-c2ccco2)n[nH]1 [CBK036878] | 104
63 | Sc1nnc(COc2ccccc2)n1/N=C/c1ccccn1 [CBK265279] | 102
64 | COc1ccc(Nc2nc(Cl)nc(NCCN3CCOCC3)n2)cc1 [CBK027610] | 104
65 | COC(=O)c1sc2cc(C(F)(F)F)cnc2c1NC(=O)C1COc2ccccc2O1 (stereo not drawn) [CBK115865] | 107
66 | CC1CN(C)C(C)CC1OC(=O)C(c1ccccc1)c1ccccc1 (stereo not drawn) [CBK087393] | 105
67 | CC(=O)Nc1cccc(NC(=O)CN(CCO)C2CCCCC2)c1 [CBK304239] | 85.7
68 | CCOC(=O)c1c(NC(=O)CSc2n[nH]c(N)n2)sc2c1CCCCC2 [CBK266569] | 101
69 | CN(C)CCNC(=O)c1ccc(-c2cnc3[nH]c(=O)n(CC4CC4)c3n2)cc1 [CBK064578] | 94.6

Row | Structure (SMILES) | viability at 28.5 h, 10 µM [%]
70 | FC(F)(F)c1ccnc(SCCc2ccncc2)n1 [CBK105302] | 95.3
71 | COc1ccc(-c2ccc(CN(Cc3ccc4c(c3)OCO4)CC(C)O)cc2)cc1 (stereo not drawn) [CBK286470] | 95
72 | NS(=O)(=O)c1ccc(N/C(S)=N\c2cccc(C(=O)O)c2)cc1 [CBK266880] | 103
73 | CN(C)CC(Oc1ccccc1)C(=O)c1ccccc1 (stereo not drawn) [CBK011935C] | 101
74 | CC(=O)NCc1cccc(-c2cc(CO)cnc2-c2ccc(Cl)cc2)c1 [CBK161445] | 94.6
75 | O=C(Oc1ccc(N(C(=O)c2ccncc2)S(=O)(=O)c2cccc3cccnc23)c2ccccc12)c1ccncc1 [CBK266915] | 79.5
76 | CC(/C(=N/O)c1ccccc1)C(O)c1ccccn1 (stereo not drawn) [CBK022993] | 83.3
77 | Cc1nc(NC(=O)CCN2C(=O)COc3ccccc32)sc1-c1n[nH]c(=S)n1C [CBK295362] | 98.5
78 | CC(=O)Nc1ccc(-c2ccc(COC3CCN(C(=O)OC(C)(C)C)CC3)cc2)cc1 [CBK138215] | 99.8
79 | C[C@@H]1CN(C(=O)OCCc2ccsc2)C[C@H](C)O1 [CBK200417] | 89.3
80 | CCNC(=O)C1CCN(C(=O)c2coc(COc3cccc(F)c3)n2)C1 (stereo not drawn) [CBK307466] | 86.3
81 | CCOc1ccccc1C(=O)N1CCC(Cc2ccccc2-c2ccccc2)(C(N)=O)CC1 [CBK285910] | 89.6
82 | Cn1nnc2cc(NCC3(CNC(=O)OC(C)(C)C)CC3)ccc21 [CBK304777] | 89.1
83 | O=c1[nH]c2cc(Cl)c(Br)nc2[nH]1 [CBK026531] | 76.9
84 | CCN(CCc1nc2cc(OC)ccc2[nH]1)C(=O)c1ccc(=O)n(C)c1 [CBK307312] | 77
85 | CN(C)Cc1cc(-c2ccc(CNC(=O)C3CC3)cc2)nn1C [CBK283470] | 80.5
86 | O=S(=O)(Nc1ccccn1)c1cccs1 [CBK043773] | 94.7
87 | O=S(=O)(NCCSc1nnnn1-c1ccccc1)c1cccs1 [CBK268013] | 112
88 | Cc1ccccc1NC(=O)NCc1ccccc1F [CBK105832] | 97.4
89 | CCSc1nnc(-c2cccc(C)c2)n1CC1CCCCC1 [CBK085419] | 96.3
90 | COc1ccc(CC(=O)N2CCN(C(C)c3nc4ccccc4s3)CC2)cc1F (stereo not drawn) [CBK297733] | 95.9
